Consider 27 molecules from PubChem BioAssay AID651630 (Sanford-Burnham Center for Chemical Genomics, 2012).

The source made the active and inactive calls.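 The calls were made as follows: active = lipid-stain IC50 at or below a set limit, with nuclear-stain toxicity IC50 at least five times higher; inactive = the rest.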 A value given as a limit tells only on which side of the number the result lay.

In test [1] the test system is TAG. The experiment in a line: TAG lipid buildup inhibition with viability readout – cell-based, panel, Nile Red and DAPI fluorescence, H9c2, dose response (AID 651630).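 Also: cells exposed to compound overnight before fixation and staining.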 The conditions noted are these: H9c2 cells, Nile Red TAG fluorescence, oleic acid.
Test [2] has as its system DAPI. The description is as above. Particulars: H9c2 cells, DAPI nuclear fluorescence (cytotoxicity counter-readout), oleic acid.

For `COc1ccc2c(c1)c(CC(=O)Nc1ccc(C)cc1)c(C)n2C(=O)c1ccc(Cl)cc1`, the IC50 (usually the concentration that inhibits the measured activity by half) in test [1] (run 1) is 20.1 µM; in test [1] (run 2), above 25 µM. The IC50 cytotoxicity (DAPI nuclear signal decrease) in test [2] (mean of runs) is > 25 µM (inactive); in test [2] (run 1), above 25 µM; in test [2] (run 2), above 25 µM.
With `COc1ccc(CNC(=O)c2ccc(N3CCC4(CC3)CC(c3ccc(Cl)cc3)=NO4)c(NC(=O)Cc3ccc(F)cc3)c2)cc1`, the IC50 is > 25 µM (inactive) in test [1] (mean of runs), above 25 µM in test [1] (run 1) and above 25 µM in test [1] (run 2). The IC50 cytotoxicity (DAPI nuclear signal decrease) in test [2] (mean of runs) is > 25 µM (inactive); in test [2] (run 1), above 25 µM; in test [2] (run 2), above 25 µM.
`O=C(C[C@H]1C[C@H](C(=O)N2CCOCC2)[C@@]2(CCC3CCCC3)c3[nH]c4cc(-c5ccco5)ccc4c3CCN2C1=O)NCC12CC3CC(CC(C3)C1)C2`: the IC50 in test [1] (mean of runs) is 3.68 µM; in test [1] (run 1), 4.04 µM; in test [1] (run 2), 3.32 µM. In addition, the IC50 cytotoxicity (DAPI nuclear signal decrease) in test [2] (run 1) and in test [2] (run 2) was above 25 µM each time.
With `Cc1cccc(NC(=O)C(C)Sc2nc3ccccc3c(=O)n2CCCN2CCOCC2)c1` (configuration not stated), the values for the IC50 in test [1] (mean of runs), in test [1] (run 1) and in test [1] (run 2) were 20.5 µM (inactive), 20.6 µM and 20.5 µM, respectively. Also, the IC50 cytotoxicity (DAPI nuclear signal decrease) in test [2] (mean of runs) is > 25 µM (inactive); in test [2] (run 1), above 25 µM; in test [2] (run 2), above 25 µM.
As for `Cc1ccc(NC(=O)Cn2nnc(-c3ccccc3NC(=O)c3cccs3)n2)cc1`, the IC50 in test [1] (mean of runs) was 5.75 µM; in test [1] (run 1), 7.48 µM; in test [1] (run 2), 4.02 µM. For the same molecule, the IC50 cytotoxicity (DAPI nuclear signal decrease) was > 25 µM (inactive) in test [2] (mean of runs), above 25 µM in test [2] (run 1) and above 25 µM in test [2] (run 2).
Take `CCc1nn2c(N3CCOCC3)cc(C)nc2c1-c1ccc(F)cc1`: the figures for the IC50 in test [1] (run 1) and in test [1] (run 2) were above 25 µM and below 0.78 µM, respectively. In addition, the values for the IC50 cytotoxicity (DAPI nuclear signal decrease) in test [2] (mean of runs), in test [2] (run 1) and in test [2] (run 2) were > 25 µM (inactive), above 25 µM and above 25 µM, respectively.
With `CCCCCC(/C=N/Nc1ccc(S(=O)(=O)N2CCOCC2)cc1[N+](=O)[O-])=C\c1ccccc1`, the figures for the IC50 in test [1] (mean of runs), in test [1] (run 1) and in test [1] (run 2) were 14.4 µM, 12.8 µM and 15.9 µM, respectively. Moreover, the results for the IC50 cytotoxicity (DAPI nuclear signal decrease) in test [2] (mean of runs), in test [2] (run 1) and in test [2] (run 2) were > 25 µM (inactive), above 25 µM and above 25 µM, respectively.
Take `Cc1ccc(-n2nc(C)c3c(C)c(CCC(=O)Nc4ccc(CN5CCCC5)cc4)c(C)nc32)cc1`: the IC50 is 20.6 µM in test [1] (run 1) and above 25 µM in test [1] (run 2). Besides, the IC50 cytotoxicity (DAPI nuclear signal decrease) in test [2] (mean of runs) is > 25 µM (inactive); in test [2] (run 1), above 25 µM; in test [2] (run 2), above 25 µM.
With `CCOc1ccc2nc(-c3ccccc3)nc(SCC(=O)Nc3ncc(C)s3)c2c1`, the results for the IC50 in test [1] (mean of runs), in test [1] (run 1) and in test [1] (run 2) were > 25 µM (inactive), above 25 µM and above 25 µM, respectively. Also, the IC50 cytotoxicity (DAPI nuclear signal decrease) in test [2] (mean of runs) is > 25 µM (inactive); in test [2] (run 1), above 25 µM; in test [2] (run 2), above 25 µM.
As for `O=C1Nc2ccc(Br)cc2/C1=N\N=C\C1=C(N2CCOCC2)C(=C/c2ccccc2)/CC1`, the concentration for half-maximal inhibition (IC50) is 0.891 µM in test [1] (mean of runs), 0.828 µM in test [1] (run 1) and 0.954 µM in test [1] (run 2). Moreover, the IC50 cytotoxicity (DAPI nuclear signal decrease) in test [2] (run 1) and in test [2] (run 2) was above 25 µM in each case.
As to `C[C@H](CO)N1C[C@H](C)[C@H](CN(C)S(=O)(=O)c2ccc(Cl)cc2)OCc2ccccc2-c2c(n(C)c3ccccc23)C1=O`, the IC50 was > 25 µM (inactive) in test [1] (mean of runs), above 25 µM in test [1] (run 1) and above 25 µM in test [1] (run 2). For the same molecule, the IC50 cytotoxicity (DAPI nuclear signal decrease) in test [2] (run 1) is 13 µM; in test [2] (run 2) it was above 25 µM.
For `CC(C)C[C@H](CO)N(Cc1ccccc1)S(=O)(=O)N(Cc1ccccc1)[C@@H](CO)CC(C)C`, the concentration for half-maximal inhibition (IC50) in test [1] (run 1) was 9.64 µM; in test [1] (run 2), above 25 µM. The figures for the IC50 cytotoxicity (DAPI nuclear signal decrease) in test [2] (mean of runs), in test [2] (run 1) and in test [2] (run 2) were > 25 µM (inactive), above 25 µM and above 25 µM, respectively.
For the molecule `COc1cccc(Nc2nnc(SCc3cc([N+](=O)[O-])cc4c3OCOC4)s2)c1`, the figures for the IC50 in test [1] (mean of runs), in test [1] (run 1) and in test [1] (run 2) were > 25 µM (inactive), above 25 µM and above 25 µM, respectively. Besides, the IC50 cytotoxicity (DAPI nuclear signal decrease) in test [2] (mean of runs) was > 25 µM (inactive); in test [2] (run 1), above 25 µM; in test [2] (run 2), above 25 µM.
As to `COC(=O)Nc1nc2ccc(SC(C)C)cc2[nH]1`, the IC50 in test [1] (run 1) was above 25 µM; in test [1] (run 2) it was 13.9 µM. Also, the figures for the IC50 cytotoxicity (DAPI nuclear signal decrease) in test [2] (mean of runs), in test [2] (run 1) and in test [2] (run 2) were > 25 µM (inactive), above 25 µM and above 25 µM, respectively.
Consider `O=C(CSc1cccc2cccnc12)Nc1ccc(S(=O)(=O)N2CCOCC2)cc1`, for which the IC50 in test [1] (mean of runs) is > 25 µM (inactive); in test [1] (run 1) it was above 25 µM; in test [1] (run 2), above 25 µM. Besides, the results for the IC50 cytotoxicity (DAPI nuclear signal decrease) in test [2] (mean of runs), in test [2] (run 1) and in test [2] (run 2) were > 25 µM (inactive), above 25 µM and above 25 µM, respectively.
Take `O=C(CCl)Nc1cc2[nH]c(=O)[nH]c2cc1Br`: the values for the IC50 in test [1] (mean of runs), in test [1] (run 1) and in test [1] (run 2) were 9.37 µM, 5.97 µM and 12.8 µM, respectively. Besides, the IC50 cytotoxicity (DAPI nuclear signal decrease) in test [2] (mean of runs) is 15 µM (inactive); in test [2] (run 1), 11.7 µM; in test [2] (run 2), 18.3 µM.
For the molecule `CCOc1ccc(NC(=O)CN(C)C(=O)c2cc(-c3ccc(OC)cc3)nc3ccccc23)cc1OCC`, the 50% inhibitory concentration (IC50) in test [1] (mean of runs) is 10.1 µM; in test [1] (run 1) it was 9.04 µM; in test [1] (run 2), 11.1 µM. The figures for the IC50 cytotoxicity (DAPI nuclear signal decrease) in test [2] (mean of runs), in test [2] (run 1) and in test [2] (run 2) were > 25 µM (inactive), above 25 µM and above 25 µM, respectively.
For the molecule `O=C1CCCC2=C1C1(CCCC1)N=C(Nc1nc3cc(-c4ccccc4)ccc3o1)N2`, the figures for the IC50 in test [1] (mean of runs), in test [1] (run 1) and in test [1] (run 2) were 17.5 µM (inactive), 15.5 µM and 19.5 µM, respectively. Moreover, the figures for the IC50 cytotoxicity (DAPI nuclear signal decrease) in test [2] (mean of runs), in test [2] (run 1) and in test [2] (run 2) were > 25 µM (inactive), above 25 µM and above 25 µM, respectively.
`N#C/C(=C\Nc1ccc2cn[nH]c2c1)c1nc(-c2ccc(Cl)cc2)cs1`: the IC50 in test [1] (mean of runs) is 11.1 µM; in test [1] (run 1), 8.39 µM; in test [1] (run 2), 13.8 µM. In addition, the IC50 cytotoxicity (DAPI nuclear signal decrease) in test [2] (mean of runs) is 17.8 µM (inactive); in test [2] (run 1), 23.7 µM; in test [2] (run 2), 12 µM.
As to `CCN1CCN(Cc2ccc(NC(=O)c3cc(NC(=O)c4cc5cccc(OC)c5o4)cc(OC)c3)cc2C(F)(F)F)CC1`, the IC50 is 13.9 µM in test [1] (mean of runs), 12.7 µM in test [1] (run 1) and 15.1 µM in test [1] (run 2). Moreover, the IC50 cytotoxicity (DAPI nuclear signal decrease) in test [2] (mean of runs) was > 25 µM (inactive); in test [2] (run 1), above 25 µM; in test [2] (run 2), above 25 µM.
Take `c1ccc(N(c2ccccc2)c2nc(N3CCCC3)nc(-n3ccnc3)n2)cc1`: the IC50 in test [1] (mean of runs) is 17.7 µM (inactive); in test [1] (run 1), 19.1 µM; in test [1] (run 2), 16.3 µM. Moreover, the IC50 cytotoxicity (DAPI nuclear signal decrease) in test [2] (mean of runs) was > 25 µM (inactive); in test [2] (run 1) it was above 25 µM; in test [2] (run 2), above 25 µM.
Turning to `COc1cc(NC(=O)c2cc([N+](=O)[O-])ccc2NC(=O)CN2CCN(c3ccccn3)CC2)cc(OC)c1`, the IC50 in test [1] (mean of runs) is 12.6 µM; in test [1] (run 1), 13.3 µM; in test [1] (run 2) it was 11.9 µM. In addition, the figures for the IC50 cytotoxicity (DAPI nuclear signal decrease) in test [2] (mean of runs), in test [2] (run 1) and in test [2] (run 2) were > 25 µM (inactive), above 25 µM and above 25 µM, respectively.
On to `CCCCC(=NCCc1c(C)[nH]c2ccc(OC)cc12)C1=C(O)CC(c2ccccc2)CC1=O` (configuration not stated), for which the figures for the IC50 in test [1] (run 1) and in test [1] (run 2) were 16.1 µM and above 25 µM, respectively. In addition, the IC50 cytotoxicity (DAPI nuclear signal decrease) in test [2] (mean of runs) is > 25 µM (inactive); in test [2] (run 1), above 25 µM; in test [2] (run 2) it was above 25 µM.
Turning to `O=C(Nc1cccc2ncccc12)c1ccc(Cl)cc1`, the figures for the half-inhibitory concentration (IC50) in test [1] (mean of runs), in test [1] (run 1) and in test [1] (run 2) were 6.22 µM, 6.27 µM and 6.17 µM, respectively. The figures for the IC50 cytotoxicity (DAPI nuclear signal decrease) in test [2] (mean of runs), in test [2] (run 1) and in test [2] (run 2) were > 25 µM (inactive), above 25 µM and above 25 µM, respectively.
Consider `COc1cc(/C=C2/NC(=O)N(Cc3ccccc3F)C2=O)ccc1O`, for which the IC50 was > 25 µM (inactive) in test [1] (mean of runs), above 25 µM in test [1] (run 1) and above 25 µM in test [1] (run 2). For the same molecule, the figures for the IC50 cytotoxicity (DAPI nuclear signal decrease) in test [2] (mean of runs), in test [2] (run 1) and in test [2] (run 2) were > 25 µM (inactive), above 25 µM and above 25 µM, respectively.
Take `COc1ccc(NS(=O)(=O)c2cccc(C(=O)N/N=C/c3cn(-c4ccccc4)nc3-c3ccccc3)c2)cc1`: the 50% inhibitory concentration (IC50) in test [1] (mean of runs) was 8.79 µM; in test [1] (run 1) it was 7.63 µM; in test [1] (run 2), 9.96 µM. The IC50 cytotoxicity (DAPI nuclear signal decrease) in test [2] (mean of runs) was > 25 µM (inactive); in test [2] (run 1), above 25 µM; in test [2] (run 2), above 25 µM.
Consider `CCCCN1C(=O)/C(=C/C=C2/C=Cc3ccccc3N2CC)SC1=S`, for which the figures for the IC50 in test [1] (mean of runs), in test [1] (run 1) and in test [1] (run 2) were 4.3 µM, 2.4 µM and 6.2 µM, respectively. In addition, the IC50 cytotoxicity (DAPI nuclear signal decrease) in test [2] (run 1) and in test [2] (run 2) was above 25 µM in each case.
